How the values were obtained:
Assay in all cases: relative viability (nuclei count vs DMSO), 5 days (fraction); higher = more cells survive
[1] = compound: O=C(O)c1ccc2c(c1)nc(Nc1cccc(Cl)c1)c1ccncc12 [Silmitasertib]
Procedure, shortened: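 In 1536-well plates, lung cancer cell lines rested overnight at 37 °C before five library-drug doses (not always all listed), √10 apart, were pinned onto vehicle-anchored plates. Nuclei were counted with MetaXpress from 4× Hoechst images taken after 5 days without medium change. Viability compares treated-well with vehicle-well nuclei as a median over plates, and plates needed control CV below 25% plus at least one doubling to pass.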

[2] = compound: O=C(O)c1ccc2c(c1)nc(Nc1cccc(Cl)c1)c1ccncc12 [Silmitasertib] + O=C(c1cc(Cc2n[nH]c(=O)c3ccccc23)ccc1F)N1CCN(C(=O)C2CC2)CC1 [Olaparib] (partner 8 µM)
Procedure, shortened: (§1)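 Lung cancer cell lines were pin-tool dosed in 1536-well plates on the day after seeding, with either a lone drug or a fixed anchor-drug dose plus five library-drug doses (not always all listed) in √10 steps. Nuclei were counted on 4× images after 5 days. Relative viability is the ratio of treated-well to vehicle-well nuclei counts, with each value a median of duplicate plates.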

[3] = compound: O=C(O)c1ccc2c(c1)nc(Nc1cccc(Cl)c1)c1ccncc12 [Silmitasertib] + CS(=O)(=O)N1CCN(Cc2cc3nc(-c4cccc5[nH]ncc45)nc(N4CCOCC4)c3s2)CC1 [Pictilisib] (partner 1 µM)
Procedure, shortened: as §1

[4] = compound: O=C(O)c1ccc2c(c1)nc(Nc1cccc(Cl)c1)c1ccncc12 [Silmitasertib] + COc1cc2c(Oc3ccc(NC(=O)C4(C(=O)Nc5ccc(F)cc5)CC4)cc3F)ccnc2cc1OCCCN1CCOCC1 [Foretinib] (partner 0.25 µM)
Procedure, shortened: as §1

[5] = compound: O=C(O)c1ccc2c(c1)nc(Nc1cccc(Cl)c1)c1ccncc12 [Silmitasertib] + CC1(C)CCC(c2ccc(Cl)cc2)=C(CN2CCN(c3ccc(C(=O)NS(=O)(=O)c4ccc(N[C@H](CCN5CCOCC5)CSc5ccccc5)c(S(=O)(=O)C(F)(F)F)c4)cc3)CC2)C1 [Navitoclax] (partner 0.5 µM)
Procedure, shortened: as §1

[6] = compound: O=C(O)c1ccc2c(c1)nc(Nc1cccc(Cl)c1)c1ccncc12 [Silmitasertib] + CS(=O)(=O)CCNCc1ccc(-c2ccc3ncnc(Nc4ccc(OCc5cccc(F)c5)c(Cl)c4)c3c2)o1 [Lapatinib] (partner 2 µM)
Procedure, shortened: as §1

[7] = compound: O=C(O)c1ccc2c(c1)nc(Nc1cccc(Cl)c1)c1ccncc12 [Silmitasertib] + Cc1nc(NC(=O)N2CCC[C@H]2C(N)=O)sc1-c1ccnc(C(C)(C)C(F)(F)F)c1 [Alpelisib] (partner 2 µM)
Procedure, shortened: as §1

[8] = compound: O=C(O)c1ccc2c(c1)nc(Nc1cccc(Cl)c1)c1ccncc12 [Silmitasertib] + C[C@]1(O)C[C@@H](c2nc(-c3ccc4ccc(-c5ccccc5)nc4c3)c3c(N)nccn32)C1 [Linsitinib] (partner 1 µM)
Procedure, shortened: as §1

[9] = compound: O=C(O)c1ccc2c(c1)nc(Nc1cccc(Cl)c1)c1ccncc12 [Silmitasertib] + CC(C)C[C@H](NC(=O)[C@H](Cc1ccccc1)NC(=O)c1cnccn1)B(O)O [Bortezomib] (partner 0.002 µM)
Procedure, shortened: as §1

[10] = compound: O=C(O)c1ccc2c(c1)nc(Nc1cccc(Cl)c1)c1ccncc12 [Silmitasertib] + C[C@@H](Oc1cc(-c2cnn(C3CCNCC3)c2)cnc1N)c1c(Cl)ccc(F)c1Cl [Crizotinib] (partner 1 µM)
Procedure, shortened: as §1

[11] = compound: O=C(O)c1ccc2c(c1)nc(Nc1cccc(Cl)c1)c1ccncc12 [Silmitasertib] + N=C(N)NC(=N)NCCc1ccccc1 [Phenformin] (partner 250 µM)
Procedure, shortened: as §1

[12] = compound: O=C(O)c1ccc2c(c1)nc(Nc1cccc(Cl)c1)c1ccncc12 [Silmitasertib] + Cc1cc(Nc2cc(N3CCN(C)CC3)nc(Sc3ccc(NC(=O)C4CC4)cc3)n2)n[nH]1 [Tozasertib] (partner 0.1 µM)
Procedure, shortened: as §1

[13] = compound: O=C(O)c1ccc2c(c1)nc(Nc1cccc(Cl)c1)c1ccncc12 [Silmitasertib] + CCNC(=O)c1noc(-c2cc(C(C)C)c(O)cc2O)c1-c1ccc(CN2CCOCC2)cc1 [Luminespib] (partner 0.01 µM)
Procedure, shortened: as §1

[14] = compound: O=C(O)c1ccc2c(c1)nc(Nc1cccc(Cl)c1)c1ccncc12 [Silmitasertib] + COc1cccc2cc(-c3nc([C@H]4CC[C@H](C(=O)O)CC4)n4ncnc(N)c34)[nH]c12 [OSI-027] (partner 0.5 µM)
Procedure, shortened: as §1

[15] = compound: O=C(O)c1ccc2c(c1)nc(Nc1cccc(Cl)c1)c1ccncc12 [Silmitasertib] + Cc1nc(Nc2ncc(C(=O)Nc3c(C)cccc3Cl)s2)cc(N2CCN(CCO)CC2)n1 [Dasatinib] (partner 0.075 µM)
Procedure, shortened: as §1

[16] = compound: O=C(O)c1ccc2c(c1)nc(Nc1cccc(Cl)c1)c1ccncc12 [Silmitasertib] + Nc1nc2[nH]cc(CCc3ccc(C(=O)N[C@@H](CCC(=O)O)C(=O)O)cc3)c2c(=O)[nH]1 [Pemetrexed] (partner 0.2 µM)
Procedure, shortened: as §1

[17] = compound: O=C(O)c1ccc2c(c1)nc(Nc1cccc(Cl)c1)c1ccncc12 [Silmitasertib] + CC(=O)c1c(C)c2cnc(Nc3ccc(N4CCNCC4)cn3)nc2n(C2CCCC2)c1=O [Palbociclib] (partner 0.5 µM)
Procedure, shortened: as §1

[18] = compound: O=C(O)c1ccc2c(c1)nc(Nc1cccc(Cl)c1)c1ccncc12 [Silmitasertib] + CC(=O)Nc1cccc(-n2c(=O)n(C3CC3)c(=O)c3c(Nc4ccc(I)cc4F)n(C)c(=O)c(C)c32)c1 [Trametinib] (partner 0.02 µM)
Procedure, shortened: as §1

[19] = compound: O=C(O)c1ccc2c(c1)nc(Nc1cccc(Cl)c1)c1ccncc12 [Silmitasertib] + Nc1ncn([C@H]2C[C@H](O)[C@@H](CO)O2)c(=O)n1 [Decitabine] (partner 2 µM)
Procedure, shortened: as §1

[20] = compound: O=C(O)c1ccc2c(c1)nc(Nc1cccc(Cl)c1)c1ccncc12 [Silmitasertib] + NC(=O)Nc1cc(-c2cccc(F)c2)sc1C(=O)N[C@H]1CCCNC1 [AZD7762] (partner 0.2 µM)
Procedure, shortened: as §1

[21] = compound: O=C(O)c1ccc2c(c1)nc(Nc1cccc(Cl)c1)c1ccncc12 [Silmitasertib] + O=C(CCCCCCC(=O)Nc1ccccc1)NO [Vorinostat] (partner 1 µM)
Procedure, shortened: as §1

What does the source list for NCI-H1299?
relative viability ([1]; 0.04 µM): 1.05; relative viability ([1]; 0.4 µM): 1.03; relative viability ([1]; 1.265 µM): 0.945; relative viability ([1]; 4 µM): 0.834; relative viability ([2]; first compound 0.04 µM): 0.946; relative viability ([2]; first compound 0.4 µM): 1.02; relative viability ([2]; first compound 1.265 µM): 0.872; relative viability ([2]; first compound 4 µM): 0.803; relative viability ([3]; first compound 0.04 µM): 1.07; relative viability ([3]; first compound 0.4 µM): 0.559; relative viability ([3]; first compound 1.265 µM): 0.343; relative viability ([3]; first compound 4 µM): 0.277; relative viability ([4]; first compound 0.04 µM): 1.19; relative viability ([4]; first compound 0.4 µM): 1.08; relative viability ([4]; first compound 1.265 µM): 1.02; relative viability ([4]; first compound 4 µM): 1.13; relative viability ([5]; first compound 0.04 µM): 1.1; relative viability ([5]; first compound 0.4 µM): 1.02; relative viability ([5]; first compound 1.265 µM): 1.06; relative viability ([5]; first compound 4 µM): 1.05; relative viability ([6]; first compound 0.04 µM): 0.989; relative viability ([6]; first compound 0.4 µM): 0.949; relative viability ([6]; first compound 1.265 µM): 0.894; relative viability ([6]; first compound 4 µM): 0.804; relative viability ([7]; first compound 0.04 µM): 1.08; relative viability ([7]; first compound 0.4 µM): 1.04; relative viability ([7]; first compound 1.265 µM): 1.02; relative viability ([7]; first compound 4 µM): 0.826; relative viability ([8]; first compound 0.04 µM): 0.96; relative viability ([8]; first compound 0.4 µM): 1.01; relative viability ([8]; first compound 1.265 µM): 0.901; relative viability ([8]; first compound 4 µM): 0.587; relative viability ([9]; first compound 0.04 µM): 1.08; relative viability ([9]; first compound 0.4 µM): 1.01; relative viability ([9]; first compound 1.265 µM): 0.988; relative viability ([9]; first compound 4 µM): 1.04; relative viability ([10]; first compound 0.04 µM): 0.956; relative viability ([10]; first compound 0.4 µM): 0.99; relative viability ([10]; first compound 1.265 µM): 0.994; relative viability ([10]; first compound 4 µM): 0.764

With NCI-H1623 as the cell line, how does the relative viability ([1]; 0.04 µM) read?
The relative viability was 1.03.

What about the relative viability ([1]; 0.4 µM) of the same cell line?
The relative viability was 0.715.

What about the relative viability ([1]; 1.265 µM) of the same cell line?
The relative viability was 0.689.

What about the relative viability ([1]; 4 µM) of the same cell line?
Its relative viability is 0.693.

What about the relative viability ([11]; first compound 0.04 µM) of the same cell line?
The relative viability was 0.563.

And the relative viability ([11]; first compound 0.4 µM)?
The relative viability was 0.498.

What about the relative viability ([11]; first compound 1.265 µM) of the same cell line?
The relative viability was 0.446.

What about the relative viability ([11]; first compound 4 µM) of the same cell line?
The relative viability was 0.382.

And the relative viability ([4]; first compound 0.04 µM)?
Its relative viability is 0.934.

And the relative viability ([4]; first compound 0.4 µM)?
Its relative viability is 0.572.

And the relative viability ([4]; first compound 1.265 µM)?
The relative viability was 0.49.

What about the relative viability ([4]; first compound 4 µM) of the same cell line?
The relative viability was 0.536.

What about the relative viability ([12]; first compound 0.04 µM) of the same cell line?
Its relative viability is 0.422.

What about the relative viability ([12]; first compound 0.4 µM) of the same cell line?
Its relative viability is 0.392.

And the relative viability ([12]; first compound 1.265 µM)?
Its relative viability is 0.36.

What about the relative viability ([12]; first compound 4 µM) of the same cell line?
The relative viability was 0.371.

And the relative viability ([13]; first compound 0.04 µM)?
The relative viability was 0.46.

What about the relative viability ([13]; first compound 0.4 µM) of the same cell line?
Its relative viability is 0.4.

What about the relative viability ([13]; first compound 1.265 µM) of the same cell line?
Its relative viability is 0.355.

And the relative viability ([13]; first compound 4 µM)?
The relative viability was 0.343.

What about the relative viability ([14]; first compound 0.04 µM) of the same cell line?
Its relative viability is 0.347.

And the relative viability ([14]; first compound 0.4 µM)?
Its relative viability is 0.385.

And the relative viability ([14]; first compound 1.265 µM)?
The relative viability was 0.368.

What about the relative viability ([14]; first compound 4 µM) of the same cell line?
The relative viability was 0.357.

What about the relative viability ([15]; first compound 0.04 µM) of the same cell line?
Its relative viability is 0.576.

And the relative viability ([15]; first compound 0.4 µM)?
Its relative viability is 0.456.

What about the relative viability ([15]; first compound 1.265 µM) of the same cell line?
The relative viability was 0.297.

And the relative viability ([15]; first compound 4 µM)?
Its relative viability is 0.361.

What does the source list for NCI-H1648?
relative viability ([1]; 0.04 µM): 1.26; relative viability ([1]; 0.4 µM): 0.63; relative viability ([1]; 1.265 µM): 0.889; relative viability ([1]; 4 µM): 0.684; relative viability ([2]; first compound 0.04 µM): 0.84; relative viability ([2]; first compound 0.4 µM): 0.525; relative viability ([2]; first compound 1.265 µM): 1.07; relative viability ([2]; first compound 4 µM): 0.876; relative viability ([16]; first compound 0.04 µM): 0.689; relative viability ([16]; first compound 0.4 µM): 0.699; relative viability ([16]; first compound 1.265 µM): 0.863; relative viability ([16]; first compound 4 µM): 0.679; relative viability ([12]; first compound 0.04 µM): 0.61; relative viability ([12]; first compound 1.265 µM): 0.283; relative viability ([12]; first compound 4 µM): 0.363; relative viability ([17]; first compound 0.04 µM): 0.256; relative viability ([17]; first compound 0.4 µM): 0.229; relative viability ([17]; first compound 1.265 µM): 0.301; relative viability ([17]; first compound 4 µM): 0.327; relative viability ([18]; first compound 0.04 µM): 0.634; relative viability ([18]; first compound 0.4 µM): 0.366; relative viability ([18]; first compound 1.265 µM): 0.474; relative viability ([18]; first compound 4 µM): 0.527; relative viability ([19]; first compound 0.04 µM): 0.49; relative viability ([19]; first compound 0.4 µM): 0.55; relative viability ([19]; first compound 1.265 µM): 0.494; relative viability ([19]; first compound 4 µM): 0.559; relative viability ([14]; first compound 0.04 µM): 0.255; relative viability ([14]; first compound 1.265 µM): 0.267; relative viability ([14]; first compound 4 µM): 0.245; relative viability ([20]; first compound 0.04 µM): 0.709; relative viability ([20]; first compound 0.4 µM): 0.624; relative viability ([20]; first compound 1.265 µM): 0.739; relative viability ([20]; first compound 4 µM): 0.423; relative viability ([21]; first compound 0.04 µM): 0.435; relative viability ([21]; first compound 0.4 µM): 0.517; relative viability ([21]; first compound 1.265 µM): 0.271; relative viability ([21]; first compound 4 µM): 0.574

— the supplement of paper PMC10307832
